{"source": "patent US4725591A", "about": "“β-lactamase inhibitory composition” (Takeda Chemical Industries, Ltd., priority 1980, dated 1988)", "data": [{"target": "T1, β-lactamase produced by Enterobacter cloacae IFO 12937 (Enterobacter cloacae, UniProt P05364)", "T1 construct": "The β-lactamase produced by Enterobacter cloacae IFO 12937; endogenous in cells; host or cells: Enterobacter cloacae IFO 12937", "T1 sequence (P05364 21-381)": "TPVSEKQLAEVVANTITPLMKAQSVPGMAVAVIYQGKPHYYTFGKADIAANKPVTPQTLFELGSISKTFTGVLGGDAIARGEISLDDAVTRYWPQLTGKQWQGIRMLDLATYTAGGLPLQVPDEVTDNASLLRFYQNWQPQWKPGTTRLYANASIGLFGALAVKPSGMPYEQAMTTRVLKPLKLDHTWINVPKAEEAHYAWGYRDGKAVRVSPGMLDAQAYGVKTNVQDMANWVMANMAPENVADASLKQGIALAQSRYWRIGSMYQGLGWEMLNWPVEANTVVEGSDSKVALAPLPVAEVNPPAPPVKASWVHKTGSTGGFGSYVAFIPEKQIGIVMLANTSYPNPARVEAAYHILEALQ", "experiment": "Inhibitor concentration required to inhibit β-lactamase (cephalosporinase) activity by 50%, micro-iodometric method", "format": "biochemical", "details": "Enterobacter cloacae IFO 12937 cephalosporinase; 0.05M phosphate buffer pH 7, 30° C., 10 minutes preincubation; cephalothin or ampicillin 0.1 mM; read-out: I50 (converted)", "procedure": "(§1) Determination of the inhibitor concentration required to inhibit the enzyme activity by 50%\n(§2) The β-lactamase produced by Enterobacter cloacae IFO 12937 is used as a typical example of cephalosporinase, and that produced by Staphylococcus aureus 1840 as typical example of penicillinase. The β-lactamase in incubated is 0.05M phosphate buffer (pH 7) with an appropriate dilution of an inhibitor preparation at 30° C. for 10 minutes. Cephalothin or ampicillin is then added in an amount sufficient to produce a final concentration of 0.1 mM, and the enzymatic reaction is allowed to proceed for 10 minutes. The enzyme activity is determined by the micro-iodometric method [Journal of general Microbiology, vol. 33, page 121 (1963)]. Hereinafter, the inhibitor concentration required to inhibit the enzyme activity by 50% is expressed as I50. The I50 values for Enterobacter cloaceae are shown in Table 1, and the I50 values for Staphylococcus aureus in Table 2.", "units": {"IC50": "nM"}, "values": [{"smiles": "COc1cccc(OC)c1C(=O)NC1CN(S(=O)(=O)O)C1=O", "note": "(stereo not shown)", "IC50": 7100}, {"smiles": "CON=C(C(=O)NC1CN(S(=O)(=O)O)C1=O)c1nc(NC(=O)CCl)sc1Cl", "note": "(stereo not shown)", "IC50": 622}, {"smiles": "CON=C(C(=O)NC1CN(S(=O)(=O)O)C1=O)c1nc(N)sc1Cl", "note": "(stereo not shown)", "IC50": 2960}, {"smiles": "Cc1ccc(SN=C(C(=O)NC2CN(S(=O)(=O)O)C2=O)c2ccccc2)cc1", "note": "(stereo not shown)", "IC50": 1250}, {"smiles": "CCN1CCN(C(=O)NC(C(=O)NC2CN(S(=O)(=O)O)C2=O)C2=C(Cl)CCCC2)C(=O)C1=O", "note": "(stereo not shown)", "IC50": 5680}, {"smiles": "CC(C)ON=C(C(=O)NC1CN(S(=O)(=O)O)C1=O)c1csc(N)n1", "note": "(stereo not shown)", "IC50": 50.1}, {"smiles": "COC1(NC(=O)C(N=[N+]=[N-])c2ccccc2)CN(S(=O)(=O)O)C1=O", "note": "(stereo not shown)", "IC50": 954}, {"smiles": "COc1ccc(COC(=O)C(C(=O)NC2(OC)CN(S(=O)(=O)O)C2=O)c2ccc(O)cc2)cc1", "note": "(stereo not shown)", "IC50": 387}, {"smiles": "CCCCCCCCN1CCN(C(=O)N[C@@H](C(=O)NC2CN(S(=O)(=O)O)C2=O)c2cccs2)C(=O)C1=O", "note": "(stereo partly drawn) [Compound 1, Sodium 3-[D-2-(4-n-octyl-2,3-dioxo-1-piperazinecarboxamido)-2-thienylacetamido]-2-oxoazetidine-1-sulfoante]", "IC50": 5020}, {"smiles": "CCCCCCCCN1CCN(C(=O)NC(C(=O)NC2(OC)CN(S(=O)(=O)O)C2=O)c2cccs2)C(=O)C1=O", "note": "(stereo not shown) [Compound 2]", "IC50": 78.3}, {"smiles": "COC1(NC(=O)C(C(=O)OCc2ccccc2)c2ccccc2)CN(S(=O)(=O)O)C1=O", "note": "(stereo not shown) [Compound 4]", "IC50": 89.2}, {"smiles": "COC1(NC(=O)C(C(=O)O)c2ccccc2)CN(S(=O)(=O)O)C1=O", "note": "(stereo not shown) [Compound 5]", "IC50": 391}, {"smiles": "CNC(=O)CC(NC(=O)OCc1ccccc1)C(=O)NC1(OC)CN(S(=O)(=O)O)C1=O", "note": "(stereo not shown) [Compound 6]", "IC50": 2400}, {"smiles": "CCN1CCN(C(=O)N[C@H](Cc2ccccc2)C(=O)NC2(OC)CN(S(=O)(=O)O)C2=O)C(=O)C1=O", "note": "(stereo partly shown) [Compound 7]", "IC50": 2150}, {"smiles": "COC1(NC(=O)[C@@H](C)NC(=O)OCc2ccccc2)CN(S(=O)(=O)O)C1=O", "note": "(stereo partly shown) [Compound 8]", "IC50": 7970}, {"smiles": "CCN1CCN(C(=O)NC(C(=O)NC2CN(S(=O)(=O)O)C2=O)C2=CCCCC2)C(=O)C1=O", "note": "(stereo not shown) [Compound 10]", "IC50": 4880}, {"smiles": "CCN1CCN(C(=O)NC(C(=O)NC2(OC)CN(S(=O)(=O)O)C2=O)c2ccccc2)C(=O)C1=O", "note": "(stereo not shown) [Compound 11]", "IC50": 523}, {"smiles": "CON=C(C(=O)NC1(OC)CN(S(=O)(=O)O)C1=O)c1csc(N)n1", "note": "(stereo not shown) [Compound 13]", "IC50": 712}, {"smiles": "CON=C(C(=O)NC1(OC)CN(S(=O)(=O)O)C1=O)c1csc(NC(=O)CCl)n1", "note": "(stereo not shown) [Compound 14]", "IC50": 658}, {"smiles": "O=C(NC1CN(S(=O)(=O)O)C1=O)C(OS(=O)(=O)O)c1ccccc1", "note": "(stereo not shown) [Compound 15]", "IC50": 9460}, {"smiles": "CON=C(C(=O)NC1CN(S(=O)(=O)O)C1=O)c1ccccc1", "note": "(stereo not shown) [Compound 16]", "IC50": 15300}, {"smiles": "COc1cccc(OC)c1C(=O)NC1(OC)CN(S(=O)(=O)O)C1=O", "note": "(stereo not shown) [Compound 18]", "IC50": 5000}, {"smiles": "CC(C)ON=C(C(=O)NC1CN(S(=O)(=O)O)C1=O)c1csc(N)n1", "note": "(stereo not shown) [Compound 23]", "IC50": 53}, {"smiles": "COC1(NC(=O)C(C)NC(=O)C(CS(=O)(=O)NS(=O)(=O)O)NC(=O)OCc2ccccc2)CN(S(=O)(=O)O)C1=O", "note": "(stereo not shown) [Compound 24]", "IC50": 1200}, {"smiles": "COC1(NC(=O)OCc2ccccc2)CN(S(=O)(=O)O)C1=O", "note": "(stereo not shown) [Compound 30, Sodium 3-benzyloxycarboxamido-3-methoxy-2-oxoazetidine-1-sulfonate]", "IC50": 15100}, {"smiles": "O=C(NC1CN(S(=O)(=O)O)C1=O)C(c1cccs1)N1C(=O)c2ccccc2C1=O", "note": "(stereo not shown) [Compound 34, Sodium 3-(2-phthalimido-2-thienylacetamido)-2-oxoazetidine-1-sulfonate]", "IC50": 873}, {"smiles": "COC1(NC(=O)C(=NOC(C)C)c2csc(N)n2)CN(S(=O)(=O)O)C1=O", "note": "(stereo not shown) [Compound 36, Sodium 3-[2-(2-aminothiazol-4-yl)-2-(1-methylethoxyimino)actamido]-3-methoxy-2-oxoazetidine-1-sulfonate]", "IC50": 56.5}, {"smiles": "COC1(NC(=O)[C@H](NC(=O)N2CCN(C3CCCCC3)C(=O)C2=O)c2cccs2)CN(S(=O)(=O)O)C1=O", "note": "(stereo partly drawn) [Compound 37, Sodium 3-[D-2-(4-cyclohexyl-2,3-dioxo-1-pipeadinecarboxamido)-2-thienylacetamido]-3-methoxy-2-oxoazetidine-1-sulfonate]", "IC50": 215}, {"smiles": "COC1(NC(=O)[C@H](NC(=O)N2CCN(CC(=O)N3CCCCC3)C(=O)C2=O)c2cccs2)CN(S(=O)(=O)O)C1=O", "note": "(stereo partly drawn) [Compound 38, Sodium 3-methoxy-3-[D-2-(4-piperidinecarbonylmethyl-2,3-dioxo-1-piperadinecarboxamido)-2-thienylacetamido]-2-oxoazetidine-1-sulfonate]", "IC50": 130}, {"smiles": "COC1(NC(=O)[C@H](NC(=O)N2CCN(c3ccccc3)C(=O)C2=O)c2cccs2)CN(S(=O)(=O)O)C1=O", "note": "(stereo partly drawn) [Compound 39, Sodium 3-methoxy-3-[D-2-(4-phenyl-2,3-dioxo-1-piperadinecarboxamido)-2-thienylacetamido]-2-oxoazetidine-1-sulfonate]", "IC50": 127}, {"smiles": "COC1(NC(=O)[C@H](NC(=O)N2CCN(C(C)(C)C)C(=O)C2=O)c2cccs2)CN(S(=O)(=O)O)C1=O", "note": "(stereo partly drawn) [Compound 40, Sodium 3-[D-2-(4-t-butyl-2,3-dioxo-1-piperadinecarboxamido)-2-thienylacetamido]-3-methoxy-2-oxoazetidine-1-sulfonate]", "IC50": 124}, {"smiles": "COC1(NC(=O)[C@H](NC(=O)N2CCN(CC=C(C)C)C(=O)C2=O)c2cccs2)CN(S(=O)(=O)O)C1=O", "note": "(stereo partly drawn) [Compound 41, Sodium 3-[D-2-[4-(3-methyl-2-butenyl)-2,3-dioxo-1-piperadinecarboxamido]-2-thienylacetamido]-3-methoxy-2-oxoazetidine-1-sulfonate]", "IC50": 120}, {"smiles": "CC(C)(ON=C(C(=O)NC1CN(S(=O)(=O)O)C1=O)c1csc(NC(c2ccccc2)(c2ccccc2)c2ccccc2)n1)C(=O)O", "note": "(stereo not shown) [Compound 43, Disodium 3-[2-[(1-carboxy-1-methylethoxy)imino]-2-(2-tritylaminothiazol-4-yl)acetamido]-2-oxoazetidine-1-sulfonate]", "IC50": 4820}]}, {"target": "T2, β-lactamase produced by Staphylococcus aureus 1840 (Staphylococcus aureus, UniProt P00807)", "T2 construct": "endogenous in cells; host or cells: Staphylococcus aureus 1840", "T2 sequence (P00807 25-281)": "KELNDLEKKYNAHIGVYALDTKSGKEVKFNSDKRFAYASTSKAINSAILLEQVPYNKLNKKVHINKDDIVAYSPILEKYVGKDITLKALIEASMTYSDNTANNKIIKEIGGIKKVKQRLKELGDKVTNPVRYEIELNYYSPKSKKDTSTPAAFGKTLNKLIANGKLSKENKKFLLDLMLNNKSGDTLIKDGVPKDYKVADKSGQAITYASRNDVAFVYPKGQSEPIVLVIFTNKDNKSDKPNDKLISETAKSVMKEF", "experiment": "Inhibitor concentration required to inhibit β-lactamase (penicillinase) activity by 50%, micro-iodometric method", "format": "biochemical", "details": "Staphylococcus aureus 1840 penicillinase; 0.05M phosphate buffer pH 7, 30° C., 10 minutes preincubation; cephalothin or ampicillin 0.1 mM; read-out: I50 (converted)", "procedure": "as §1, §2", "units": {"IC50": "nM"}, "values": [{"smiles": "O=C(NC1CN(S(=O)(=O)O)C1=O)C(=O)c1ccccc1", "note": "(stereo not shown)", "IC50": 12500}, {"smiles": "O=C(NC1CN(S(=O)(=O)O)C1=O)C(Br)c1ccccc1", "note": "(stereo not shown)", "IC50": 493}, {"smiles": "[N-]=[N+]=NC(C(=O)NC1CN(S(=O)(=O)O)C1=O)c1ccccc1", "note": "(stereo not shown)", "IC50": 144}, {"smiles": "[N-]=[N+]=NC(C(=O)NC1CN(S(=O)(=O)O)C1=O)c1cccc(Cl)c1", "note": "(stereo not shown)", "IC50": 147}, {"smiles": "CCN1C(=O)C(=O)N(C(=O)N[C@@H](C(=O)NC2CN(S(=O)(=O)O)C2=O)c2cccs2)C[C@@H]1C", "note": "(stereo partly drawn) [Compound 44, Sodium 3-[D-2-(4-ethyl-5(S)-methyl-2,3-dioxo-2,3-dioxo-1-piperazinecarboxamido)-2-thienylacetamido]-2-oxoazetidine-1-sulfonate]", "IC50": 2460}, {"smiles": "O=C(NC1CN(S(=O)(=O)O)C1=O)[C@H](NC(=O)N1CCNC1=O)c1cccs1", "note": "(stereo partly drawn) [Compound 45, Sodium 3-[D-2-[(2-oxoimidazolidin-1-yl)carboxamido]-2-thienylacetamido]-2-oxoazetidine-1-sulfonate]", "IC50": 5750}, {"smiles": "O=C(CSc1c(Cl)cccc1Cl)N[C@@H](C(=O)NC1CN(S(=O)(=O)O)C1=O)c1ccccc1", "note": "(stereo partly shown) [Compound 46]", "IC50": 9650}, {"smiles": "Nc1nc(CC(=O)N[C@@H](C(=O)NC2CN(S(=O)(=O)O)C2=O)c2ccccc2)cs1", "note": "(stereo partly shown) [Compound 47]", "IC50": 11400}, {"smiles": "O=C(NC(CS(=O)(=O)NC1CN(S(=O)(=O)O)C1=O)C(=O)OCc1ccccc1)OCc1ccccc1", "note": "(stereo not shown) [Compound 48]", "IC50": 3140}, {"smiles": "CS(=O)(=O)NC1CN(S(=O)(=O)O)C1=O", "note": "(stereo not shown) [Compound 52]", "IC50": 14300}]}]}
